Experimental data from patent publication US11401247B2, “Thiazole-5-carboxylic acid derivative and preparation method and use thereof” (XIANGBEI WELMAN PHARMACEUTICAL CO., LTD, priority 2018, dated 2022).
Read-outs that look alike come from different tables or passages of the source.

Key:
ICR mice = conditions: for Number of dead animals: 10 mice
hyperuricemia rats [1] = assay: pharmacodynamic screening in rat hyperuricemia model (exogenous uric acid administered, uric acid decomposition inhibited); type: in vivo, SD rats
in vivo = conditions: mouse, po
hyperuricemia rats [2] = assay: dose-effect relationship study in rat hyperuricemia model; type: in vivo, SD rats; conditions: 10 mg/kg oral, 3 h after first administration; model group 226.2 ± 35.2, blank 37.4 ± 5.1
Method: In order to further study the pharmacological activity of the compounds of the present disclosure, as well as the relationship between the activity and the dose, this example selected several compounds of the present disclosure to conduct a dose-effect relationship study in a rat model, in which exogenous uric acid was administered and uric acid decomposition was inhibited simultaneously. A positive drug was used as a control.
1. Experimental animals: Male SPF grade SD rats weighing 110-150 grams. […] The animals were free to drink and eat. All cages were sterilized at 121° C., feed was sterilized by irradiation, and water was sterilized purified water.
2. Experimental drugs: F-1C, F-2C, F-3A, 1.0 g for each compound; febuxostat (positive drug) 1.0 g; febuxostat ethyl ester (ethyl 2-[3-cyano-4-isobutoxyphenyl]-4-methylthiazole-5-carboxylate) 1.0 g;
3.1 Formulation of F-1C, F-2C, F-3A: Tor each of the compounds, take 100 mg, add 20 ml of 0.5% sodium carboxymethyl cellulose and grind, and then dilute to 100 ml.
3.2 Take 100 mg of febuxostat, add 20 ml of 0.5% sodium carboxymethyl cellulose and grind, and then dilute to 100 ml.
Except the blank group, the rest rats were modeled for 15 days and then their serum uric acid levels were detected. The rats were equally divided into several groups according to the detected uric acid levels thereof.
F-1C, F-2C and F-3A groups: each compound was taken orally at 3 doses, i.e., 2.5, 5 and 10 mg/kg; QD; and 10 animals for each dose group.
Febuxostat group: oral administration of 10 mg/kg, QD, and 10 animals.
Febuxostat ethyl ester group: oral administration of 10 mg/kg, QD, and 10 animals.
The blank group was not administrated with any drug. Each of the rest groups was orally administrated with oteracil potassium 1 g/kg and uric acid 0.3 g/kg and intraperitoneally injected with 0.1 g/kg uric acid (dissolved in 0.5% sodium carboxymethyl cellulose), once a day on schedule, for 15 days. 0.5 ml of blood samples was drawn from orbit before the experiment and […] after the modelling, respectively, to separated serum for determining serum uric acid levels.
After successful modeling, the rats were equally divided into several groups according to the serum uric acid values thereof, and then were intragastrically administrated with the test drugs. Three hours after the first administration, 0.5 ml of orbital venous blood was drawn from the orbit of the rats, centrifuged at 3000 RPM for 15 min, to obtain for determining the serum uric acid level of each rat.
Data were expressed by mean±standard deviation (′x±SD), and analyzed by Excel 7.0 and SPPS 13.0 for Windows software. Q-test was used for the comparison between groups, and the self-paired t-test was used for the comparison of a group before and after administration. It indicated significant difference when P<0.05.

## Cc1nc(-c2ccc(OCC(C)C)c(C#N)c2)sc1C(=O)O [Febuxostat, 2-[3-cyano-4-isobutoxyphenyl]-4-methylthiazole-5-carboxylic acid, reference compound]
ICR mice; formal test, all dose groups, febuxostat high-dose group
  animal deaths within 24 hours from the administration: several animals of the high-dose group of febuxotan died
ICR mice; ig 327.7 mg/kg
  Number of dead animals: 0
ICR mice; ig 409.6 mg/kg
  Number of dead animals: 0
ICR mice; ig 512 mg/kg
  Number of dead animals: 1
ICR mice; ig 640 mg/kg
  Number of dead animals: 3
ICR mice; ig 800 mg/kg
  Number of dead animals: 6
ICR mice; mice after ig administration
  Cause of death: toxicity to the urinary system
ICR mice; mice, intragastric 1600 mg/kg
  death, preliminary experiments: caused death in several mice
Hyperuricemia rats [1]; 14 mg/kg oral, 3 h after first administration, model group 174.4 ± 39.9, blank 53.9 ± 12.8
  Serum uric acid level, Value after 3 h of drug administration: 86.6 ± 17.5^a3b3c3 μmol/L
Hyperuricemia rats [1]; 3 h after drug administration, F compounds 10 mg/kg, febuxostat and ethyl ester 14 mg/kg oral
  uric acid-lowering effect (in words): good effect on lowering uric acid
Hyperuricemia rats [1]; F compounds 10 mg/kg, febuxostat 14 mg/kg oral
  p, uric acid level 3 h after drug administration compared with the blank group: < 0.001
In vivo
  LD50 at 14 days: 701 ± 47.6 mg/kg
Hyperuricemia rats [2]
  Serum uric acid content, Value after 3 h of drug administration: 140.8 ± 33.5^a3, b3 μmol/L
